Data reported in patent publication US11136342B2, “Carbonate prodrugs and methods of using the same” (Acorda Therapeutics, Inc., priority 2008, dated 2021).
Values after ≈ are worked out from the molar mass of the structure shown. Like-named read-outs stand apart in the source and are kept apart here.

Key:
Type in all cases: physicochemical
[1] = Prodrug stability in propylene glycol-d8 at room temperature by 1H and 31P NMR
Experimental: (4-acetamidophenyl carbonic) phosphoric anhydride (20.4 mg) was dissolved in 600 mg propylene glycol-d8 and ^1H and ^31P NMR spectra were recorded at room temperature. In addition to (4-acetamidophenyl carbonic) phosphoric anhydride (d−766 ppm), there were peaks at d+334, 265 (likely H3PO4) and +203 ppm.

[2] = Prodrug stability in D2O by proton NMR; settings: for Remaining Prodrug: water (D2O), room temperature
Experimental: (4-acetamidophenyl carbonic) phosphoric (29.5 mg) was dissolved in D2O (0.7 mL) and monitored by proton NMR.

[3] = Prodrug stability in propylene glycol-d8 at low temperature by 1H NMR
Experimental: Two samples of (4-acetamidophenyl carbonic) phosphoric anhydride (20 mg each) were dissolved in propylene glycol-d8 (600 mg) and the samples were stored at 4° C. and −20° C.

[4] = Solubility of the prodrug in water, glycerol and propylene glycol; settings: for solubility: thermodynamic from solid
Experimental: Solubility of the prodrug (4-acetamidophenyl carbonic) phosphoric anhydride was determined in water, glycerol, and propylene glycol. 10 mg of (4-acetamidophenyl carbonic) phosphoric anhydride was weighed into a vial, small amounts of solvent were added and the mixture was sonicated until a solution formed.

half-life at 34 mg/g solvent [1]: ~6.3 h | Remaining Prodrug 1H NMR ([1]; 10 min): 94.03% | Remaining Prodrug 31P NMR ([1]; 10 min): 96.7% | Remaining Prodrug 1H NMR ([1]; 18 min): 92.64% | Remaining Prodrug 31P NMR ([1]; 18 min): 94.5% | Remaining Prodrug 1H NMR ([1]; 28 min): 90.79% | Remaining Prodrug 31P NMR ([1]; 28 min): 92.1% | Remaining Prodrug 1H NMR ([1]; 41 min): 88.57% | Remaining Prodrug 31P NMR ([1]; 41 min): 89.9% | Remaining Prodrug 1H NMR ([1]; 51 min): 86.84% | Remaining Prodrug 31P NMR ([1]; 51 min): 88.4% | Remaining Prodrug 1H NMR ([1]; 61 min): 85.36% | Remaining Prodrug 31P NMR ([1]; 61 min): 86.4% | Remaining Prodrug 1H NMR ([1]; 70 min): 83.93% | Remaining Prodrug 31P NMR ([1]; 70 min): 85.0% | Remaining Prodrug 1H NMR ([1]; 120 min): 74.63% | Remaining Prodrug 31P NMR ([1]; 120 min): 77.6% | Remaining Prodrug 1H NMR ([1]; 169 min): 68.80% | Remaining Prodrug 31P NMR ([1]; 169 min): 71.7% | Remaining Prodrug 1H NMR ([1]; 228 min): 62.97% | Remaining Prodrug 31P NMR ([1]; 228 min): 64.9% | Remaining Prodrug 1H NMR ([1]; 297 min): 56.82% | Remaining Prodrug 31P NMR ([1]; 297 min): 57.4% | Remaining Prodrug 1H NMR ([1]; 345 min): 52.10% | Remaining Prodrug 31P NMR ([1]; 345 min): 52.8% | Remaining Prodrug 1H NMR ([1]; 380 min): 49.13% | Remaining Prodrug 31P NMR ([1]; 380 min): 49.6% | Remaining Prodrug 1H NMR ([1]; 425 min): 46.33% | Remaining Prodrug 31P NMR ([1]; 425 min): 46.6% | Remaining Prodrug 1H NMR ([1]; 446 min): 45.67% | Remaining Prodrug 31P NMR ([1]; 446 min): 44.0% | Remaining Prodrug 1H NMR ([1]; 1269 min): 19.61% | Remaining Prodrug 31P NMR ([1]; 1269 min): 17.1% | half-life at 42.1 mg/mL ([2]; D2O, 29.5 mg in 0.7 mL): ~1.5 h | Remaining Prodrug ([2]; 3 min): 94.4% | Remaining Prodrug ([2]; 9 min): 90.3% | Remaining Prodrug ([2]; 14 min): 86.4% | Remaining Prodrug ([2]; 29 min): 75.7% | Remaining Prodrug ([2]; 39 min): 70.9% | Remaining Prodrug ([2]; 49 min): 65.6% | Remaining Prodrug ([2]; 60 min): 61.0% | Remaining Prodrug ([2]; 75 min): 55.5% | Remaining Prodrug ([2]; 90 min): 50.6% | Remaining Prodrug ([2]; 105 min): 46.0% | Remaining Prodrug ([2]; 120 min): 41.7% | Remaining Prodrug ([2]; 146 min): 36.7% | Remaining Prodrug ([2]; 188 min): 29.3% | Remaining Prodrug ([2]; 270 min): 20.2% | Remaining Prodrug ([2]; 375 min): 13.9% | Remaining Prodrug ([2]; 420 min): 11.7% | Remaining Prodrug ([2]; 495 min): 8.4% | Remaining Prodrug ([2]; 840 min): 3.0% | Remaining Prodrug ([2]; 1410 min): 1.4% | Acetaminophen Formation ([3]; propylene glycol-d8, 4° C., 0.17 h): 7.1% | Acetaminophen Formation ([3]; propylene glycol-d8, 4° C., 19.3 h): 37.8% | Acetaminophen Formation ([3]; propylene glycol-d8, 4° C., 44.5 h): 58.5% | Acetaminophen Formation ([3]; propylene glycol-d8, 4° C., 68.7 h): 71.5% | Acetaminophen Formation ([3]; propylene glycol-d8, 4° C., 94.0 h): 79.3% | Acetaminophen Formation ([3]; propylene glycol-d8, 4° C., 116 h): 83.1% | Acetaminophen Formation ([3]; propylene glycol-d8, 4° C., 140 h): 84.6% | Acetaminophen Formation ([3]; propylene glycol-d8, −20° C., 0.17 h): 10.1% | Acetaminophen Formation ([3]; propylene glycol-d8, −20° C., 19.3 h): 15.0% | Acetaminophen Formation ([3]; propylene glycol-d8, −20° C., 44.5 h): 20.5% | Acetaminophen Formation ([3]; propylene glycol-d8, −20° C., 68.7 h): 25.0% | Acetaminophen Formation ([3]; propylene glycol-d8, −20° C., 94.0 h): 29.0% | Acetaminophen Formation ([3]; propylene glycol-d8, −20° C., 116 h): 32.2% | Acetaminophen Formation ([3]; propylene glycol-d8, −20° C., 140 h): 36.2% | solubility ([4]; organic solvent or mixture, glycerol d=1.25 g/mL, read-out: Solubility in glycerol): 20.6 mg/mL (≈ 74.9 mM) | solubility ([4]; organic solvent or mixture, propylene glycol d=1.036 g/mL, read-out: Solubility in propylene glycol): 154 mg/mL (≈ 560 mM) | solubility ([4]; water, room temperature, read-out: Solubility in water): 152 mg/mL (≈ 552 mM) | Water solubility relative to acetaminophen ([4]; water, room temperature): more than 10 times
Compound: CC(=O)Nc1ccc(OC(=O)OP(=O)(O)O)cc1 [(4-acetamidophenyl carbonic) phosphoric anhydride]
Effect of low temperature storage on stability ([3]; propylene glycol-d8, 4° C. and −20° C.): low temperature storage improved the stability
